Source: PubChem BioAssay AID2366 (The Scripps Research Institute Molecular Screening Center, 2010)
The source made the active and inactive calls.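 The calls were made as follows: active = compounds picked for the later follow-up tests because of their potency and selectivity; inactive = compounds skipped in follow-up as weaker or less selective.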

Target: Protein phosphatase methylesterase 1 (Homo sapiens) (UniProt Q9Y570)
Test: endogenous PME-1 and serine hydrolase inhibition – cell lysate, mouse brain cytosol, FP-rhodamine, gel ABPP, selectivity assay for PME-1 inhibitor project, dose response (AID 2366)

Protein phosphatase methylesterase 1 (Homo sapiens), sequence (Q9Y570 whole entry, looked up): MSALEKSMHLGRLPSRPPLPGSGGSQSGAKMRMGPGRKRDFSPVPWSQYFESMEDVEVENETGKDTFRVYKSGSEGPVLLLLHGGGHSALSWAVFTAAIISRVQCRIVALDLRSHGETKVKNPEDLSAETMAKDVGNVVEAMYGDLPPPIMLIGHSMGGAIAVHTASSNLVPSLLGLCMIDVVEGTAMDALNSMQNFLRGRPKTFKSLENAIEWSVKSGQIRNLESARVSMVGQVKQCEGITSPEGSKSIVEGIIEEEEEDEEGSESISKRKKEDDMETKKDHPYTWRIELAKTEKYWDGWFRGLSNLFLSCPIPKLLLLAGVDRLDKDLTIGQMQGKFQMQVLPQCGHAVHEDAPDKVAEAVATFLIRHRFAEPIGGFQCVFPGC

| IC50 | Structure (SMILES) |
| --- | --- |
| 4 µM | CS(=O)(=O)/C(C#N)=C/c1cccn1S(=O)(=O)c1ccc(C#N)cc1 |
| > 20 µM (inactive) | CS(=O)(=O)/C(C#N)=C/c1cccn1S(=O)(=O)c1c(F)c(F)c(F)c(F)c1F |
| 10.8 µM | CS(=O)(=O)/C(C#N)=C/c1cccn1S(=O)(=O)c1ccccc1 |
| 3 µM | CS(=O)(=O)/C(C#N)=C/c1cccn1S(=O)(=O)c1ccc([N+](=O)[O-])cc1 |
| 2.5 µM | CS(=O)(=O)/C(C#N)=C/c1cccn1S(=O)(=O)c1cccc(C#N)c1 |
| 6.8 µM | CC(C)(C)S(=O)(=O)/C(C#N)=C/c1cccn1S(=O)(=O)c1ccccc1 |
| 0.64 µM | N#C/C(=C\c1cccn1S(=O)(=O)c1cccc(C#N)c1)S(=O)(=O)c1ccc(F)cc1 |
| 3.4 µM | CC(C)(C)S(=O)(=O)/C(C#N)=C/c1cccn1S(=O)(=O)c1cccc(C#N)c1 |
| > 20 µM (inactive) | N#C/C(=C\c1cccn1S(=O)(=O)c1ccccc1)S(=O)(=O)c1ccccc1 |
